One assay concerns Enterococcus faecium. Kind of assay: Antibacterial activity against VAN-resistant Enterococcus faecium ATCC 700221 after 18 hrs by agar dilution method. Format: functional. Particulars: ATCC 700221, 18 h. Background: Agar dilution tests growth on a series of plates holding different concentrations.
For assay [1], the system named is Staphylococcus epidermidis. Kind of assay: Antibacterial activity against methicillin-resistant Staphylococcus epidermidis 13-3 after 18 hrs by agar dilution method. The format is functional. Conditions: 13-3, 18 h.
Assay [2] deals with Staphylococcus aureus. Put plainly: Antibacterial activity against VAN-intermediate Staphylococcus aureus ATCC 700698 after 18 hrs by agar dilution method. Format: functional. Conditions: ATCC 700698, 18 h.
Assay [3] has as its system Enterococcus faecalis. Put plainly: Antibacterial activity against VAN-sensitive Enterococcus faecalis ATCC 29212 after 18 hrs by agar dilution method. The format is functional. Conditions: ATCC 29212, 18 h.
The subject of assay [4] is Staphylococcus aureus. Put plainly: Antibacterial activity against methicillin-sensitive Staphylococcus aureus ATCC 29213 after 18 hrs by agar dilution method. The format is functional. Particulars: ATCC 29213, 18 h.
The subject of assay [5] is Staphylococcus aureus. Put plainly: Antibacterial activity against methicillin-resistant Staphylococcus aureus ATCC 33591 after 18 hrs by agar dilution method. The format is functional. Conditions: ATCC 33591, 18 h.
In assay [6] the test system is Enterococcus faecalis. Kind of assay: Antibacterial activity against VAN-resistant Enterococcus faecalis ATCC 51299 after 18 hrs by agar dilution method. Format: functional. Conditions: ATCC 51299, 18 h.
The subject of assay [7] is Staphylococcus aureus. Put plainly: Bactericidal activity against methicillin-resistant Staphylococcus aureus 18-4 assessed as reduction in bacterial growth at 8 times MIC measured within 2 hrs by time kill assay relative to control. Format: functional.
Assay [8] concerns Staphylococcus aureus. Kind of assay: Bactericidal activity against methicillin-resistant Staphylococcus aureus 18-4 assessed as reduction in bacterial growth at 2 times MIC measured after 24 hrs by time kill assay relative to control. The format is functional.
For assay [9], the system named is Staphylococcus aureus. Kind of assay: Antibacterial activity against methicillin-resistant Staphylococcus aureus 18-4 after 18 hrs by agar dilution method. Conditions: 18-4, 18 h. Format: functional.
For assay [10], the system named is Staphylococcus aureus. Put plainly: Bactericidal activity against methicillin-resistant Staphylococcus aureus 18-4 assessed as reduction in bacterial growth at 2 to 32 times MIC measured within 8 hrs by time kill assay relative to control. The format is functional.
The target of assay [11] is Topoisomerase IV (Staphylococcus aureus) (UniProt P0C1U9+P0C1S7). Put plainly: Inhibition of methicillin-resistant Staphylococcus aureus topoisomerase-4 assessed as reduction in DNA decatenation at 2.5 to 5 ug/ml using super coiled pBR322 plasmid DNA as substrate measured after 30 mins by agarose gel electrophoresis method relative to control. Format: protein-complex assay.

The structures appear in SMILES notation. Activity calls are given as the source filed them. No cut-off for these calls is given here.

Usually MIC stands for the lowest concentration found to suppress growth. The low end stands for greater potency, the high end for weaker potency. For `COc1ccc2c(c1OC)c(-c1ccc(F)cc1)[n+]1c3c2ccc2c4c(cc(c23)CC1)OCO4.[Br-]`, the MIC against Enterococcus faecium is greater than 128 µg/mL; in assay [1], 4 µg/mL; against Staphylococcus aureus [2], 16 µg/mL; against Enterococcus faecalis [3], 16 µg/mL; with Staphylococcus aureus [4], 8 µg/mL; against Staphylococcus aureus [5] it was 8 µg/mL. In the assay with Enterococcus faecalis [6], this compound yielded an MIC of 16 µg/mL.
With `CCOc1c(OC)ccc2c1c(-c1ccccc1)[n+]1c3c2ccc2c4c(cc(c23)CC1)OCO4.[Br-]`, the MIC against Enterococcus faecium was 2 µg/mL; in [1], 1 µg/mL; with Staphylococcus aureus [2], 32 µg/mL; against Enterococcus faecalis [3] it was 4 µg/mL; with Staphylococcus aureus [4], 1 µg/mL; against Staphylococcus aureus [5], 8 µg/mL. In the assay on Enterococcus faecalis [6], this compound returned an MIC of 4 µg/mL.
Take `CCc1cc2c3ccc(OC)c(OC)c3c[n+]3c2c2c(cc4c(c12)OCO4)CC3.[Cl-]`: the MIC is 32 µg/mL in the assay on Enterococcus faecium; 1 µg/mL in assay [1]; 16 µg/mL against Staphylococcus aureus [2]; 8 µg/mL in the assay on Enterococcus faecalis [3]; 2 µg/mL in the assay on Staphylococcus aureus [4]; 4 µg/mL against Staphylococcus aureus [5]. In the assay with Enterococcus faecalis [6], this compound yielded an MIC of 8 µg/mL.
`CCc1cc2c3ccc(OC)c(OC)c3c(-c3ccc(Cl)cc3)[n+]3c2c2c(cc4c(c12)OCO4)CC3.[Br-]`: the MIC against Enterococcus faecium amounted to 1 µg/mL; in assay [1], 1 µg/mL; against Staphylococcus aureus [2] it was 32 µg/mL; in the assay on Enterococcus faecalis [3], 4 µg/mL; against Staphylococcus aureus [4], 1 µg/mL; against Staphylococcus aureus [5] it was 2 µg/mL. Also, the MIC with Enterococcus faecalis [6] came to 4 µg/mL.
`COc1ccc2c(c1OC)c(-c1ccccc1)[n+]1c3c2ccc2c4c(cc(c23)CC1)OCO4.[Br-]`: the “growth inhibition (GI)” value is given as 100% with Staphylococcus aureus [7], 99.99% with Staphylococcus aureus [8] and greater than 90% in the assay with Staphylococcus aureus [10]. Besides, the MIC was 4 µg/mL with Enterococcus faecium; 1 µg/mL in assay [1]; 1 µg/mL against Staphylococcus aureus [9]; 8 µg/mL against Staphylococcus aureus [2]; 4 µg/mL with Enterococcus faecalis [3]; 1 µg/mL against Staphylococcus aureus [4]. Further, the MIC in the assay with Staphylococcus aureus [5] and against Enterococcus faecalis [6] was 4 µg/mL each time. Moreover, the inhibition result in assay [11] is “Active”.
`C=CCc1c2c(OC)c(OC)ccc2c2ccc3c4c(cc5c3c2[n+]1CC5)OCO4.[Br-]`: the MIC was 16 µg/mL with Enterococcus faecium; 8 µg/mL in [1]; 16 µg/mL in the assay on Staphylococcus aureus [2]; 16 µg/mL against Enterococcus faecalis [3]; 16 µg/mL in the assay on Staphylococcus aureus [4]; 16 µg/mL with Staphylococcus aureus [5]. 16 µg/mL was the least that counted as inhibitory with Enterococcus faecalis [6] (MIC).
On to `CCc1cc2c3ccc(OC)c(OC)c3c(CC(C)C)[n+]3c2c2c(cc4c(c12)OCO4)CC3.[Br-]`, for which the MIC against Enterococcus faecium is 2 µg/mL; in assay [1], 1 µg/mL; in the assay on Staphylococcus aureus [2], 32 µg/mL; in the assay on Enterococcus faecalis [3], 4 µg/mL; against Staphylococcus aureus [4], 1 µg/mL; against Staphylococcus aureus [5], 4 µg/mL. In the assay on Enterococcus faecalis [6], the MIC worked out at 8 µg/mL.
On to `CCc1cc2c3ccc(OC)c(OC)c3c(-c3ccccc3)[n+]3c2c2c(cc4c(c12)OCO4)CC3.[Br-]`, for which the MIC is 1 µg/mL with Enterococcus faecium; 1 µg/mL in [1]; 32 µg/mL against Staphylococcus aureus [2]; 4 µg/mL with Enterococcus faecalis [3]; 1 µg/mL against Staphylococcus aureus [4]; 8 µg/mL against Staphylococcus aureus [5]. Moreover, the MIC against Enterococcus faecalis [6] is 4 µg/mL.
`CCCCc1cc2c3ccc(OC)c(OC)c3c[n+]3c2c2c(cc4c(c12)OCO4)CC3.[Cl-]`: the MIC in the assay on Enterococcus faecium came to 16 µg/mL; in assay [1] it was 32 µg/mL; with Staphylococcus aureus [2], 16 µg/mL; against Enterococcus faecalis [3], 16 µg/mL; against Staphylococcus aureus [4], 4 µg/mL; in the assay with Staphylococcus aureus [5] it was 4 µg/mL. Besides, in the assay with Enterococcus faecalis [6], the minimum inhibitory concentration (MIC) came to 32 µg/mL.
In the case of `CCCCc1cc2c3ccc(OC)c(OC)c3c(-c3ccccc3)[n+]3c2c2c(cc4c(c12)OCO4)CC3.[Br-]`, the MIC amounted to 1 µg/mL in the assay on Enterococcus faecium; 1 µg/mL in [1]; 32 µg/mL against Staphylococcus aureus [2]; 2 µg/mL against Enterococcus faecalis [3]; 1 µg/mL against Staphylococcus aureus [4]; 2 µg/mL in the assay with Staphylococcus aureus [5]. In the assay with Enterococcus faecalis [6], this compound showed an MIC of 4 µg/mL.
`CCCc1cc2c3ccc(OC)c(OC)c3c(-c3ccccc3)[n+]3c2c2c(cc4c(c12)OCO4)CC3.[Br-]`: the MIC against Enterococcus faecium was greater than 128 µg/mL; in assay [1], 2 µg/mL; against Staphylococcus aureus [2], 32 µg/mL; against Enterococcus faecalis [3] it was 8 µg/mL; with Staphylococcus aureus [4] it was 2 µg/mL; in the assay with Staphylococcus aureus [5] it was 2 µg/mL. The same compound yielded an MIC against Enterococcus faecalis [6] of 16 µg/mL.
With `COc1cc2c3c(ccc4c5ccc(OC)c(OC)c5c(-c5ccc(Cl)cc5)[n+](c43)CC2)c1OC.[Br-]`, the MIC with Enterococcus faecium was greater than 128 µg/mL; in [1], 2 µg/mL; in the assay with Staphylococcus aureus [2], 16 µg/mL; with Enterococcus faecalis [3] it was 16 µg/mL; in the assay with Staphylococcus aureus [4], 2 µg/mL; against Staphylococcus aureus [5], 8 µg/mL. Also, it took 8 µg/mL to inhibit growth with Enterococcus faecalis [6] (MIC).
As for `COc1cc2c3c(ccc4c5ccc(OC)c(OC)c5c(-c5ccccc5)[n+](c43)CC2)c1OC.[Br-]`, the MIC against Enterococcus faecium is greater than 128 µg/mL; in assay [1], 4 µg/mL; against Staphylococcus aureus [2], 32 µg/mL; in the assay with Enterococcus faecalis [3], 32 µg/mL; with Staphylococcus aureus [4], 4 µg/mL; in the assay with Staphylococcus aureus [5], 16 µg/mL. For the same compound, in the assay with Enterococcus faecalis [6], the MIC is 32 µg/mL.
Take `CCCc1cc2c3ccc(OC)c(OC)c3c[n+]3c2c2c(cc4c(c12)OCO4)CC3.[Cl-]`: the MIC amounted to 8 µg/mL with Enterococcus faecium; 4 µg/mL in assay [1]; 8 µg/mL in the assay on Staphylococcus aureus [2]; 8 µg/mL in the assay with Enterococcus faecalis [3]; 2 µg/mL in the assay with Staphylococcus aureus [4]; 16 µg/mL against Staphylococcus aureus [5]. Moreover, the MIC against Enterococcus faecalis [6] came to 8 µg/mL.
For `CCc1c2c(OC)c(OC)ccc2c2ccc3c4c(cc5c3c2[n+]1CC5)OCO4.[Br-]`, the MIC in the assay on Enterococcus faecium was found to be 8 µg/mL; in assay [1] it was 4 µg/mL; against Staphylococcus aureus [2], 64 µg/mL; with Enterococcus faecalis [3] it was 16 µg/mL; in the assay with Staphylococcus aureus [4], 4 µg/mL; in the assay with Staphylococcus aureus [5], 16 µg/mL. The compound also displayed an MIC against Enterococcus faecalis [6] of 16 µg/mL.
With `C=Cc1c2c(OC)c(OC)ccc2c2cc(CC)c3c4c(cc5c3c2[n+]1CC5)OCO4.[Br-]`, the MIC against Enterococcus faecium is 1 µg/mL; in assay [1], 1 µg/mL; in the assay on Staphylococcus aureus [2], 32 µg/mL; against Enterococcus faecalis [3], 2 µg/mL; in the assay with Staphylococcus aureus [4] it was 1 µg/mL; in the assay with Staphylococcus aureus [5] it was 2 µg/mL. The MIC against Enterococcus faecalis [6] is 4 µg/mL.
